The values below come from US20120022294A1, “Axomadol or a Metabolite Thereof for Use in the Treatment of Irritable Bowel Syndrome” (priority 2010, published 2012).

Where a name gives a salt, the structure may show the parent alone. Read-outs that look alike come from different tables or passages of the source.

The test system of experiment [1] is isolated guinea pig ileum. As to the kind of experiment: twitch contractions (electrically induced) of the isolated guinea pig ileum. Conditions: for IC50: Cavia porcellus; for threshold of reduction of electrically induced contractions: concentration-dependent; for % reversal by naloxone: naloxone 10^−6 M added after last application of test compound; for inhibitory effect reversed after addition of naloxone: opioid receptor antagonist naloxone 1 μM; for maximal reduction: twitch reaction remaining as % of pre-value at highest concentration. How it is done: It was investigated whether axomadol and (+)-O-demethyl axomadol are able to modulate gastrointestinal motility.
Male guinea pigs (PBW, Charles River, Kiβlegg, FRG) weighing 250-350 g were used for the study. The animals were kept under standard housing conditions: light/dark rhythm (06.00-18.00 h light, 18.00-6.00 h dark); room temperature 22±2° C., relative air humidity 55±5%; 15 air changes per hour, air movement <0.2 m/sec. The animals were given water and an exclusive diet of “Herilan RM 204” (Eggersmann Company, Rinteln/FRG) ad libitum. Before experimental preparation they were kept in groups of up to 5 animals in type IV Makrolon cages (Ebeco Company, Castrop-Rauxel, FRG). There were at least 4 days between delivery and testing.
Axomadol hydrochloride and (+)-O-demethyl axomadol hydrochloride were dissolved in aqua bidest. Final concentrations in the organ bath ranged from 10^−7 to 3.2·10^−4 M and from 10^−8 to 3.2·10^−5 M for axomadol hydrochloride and (+)-O-demethyl axomadol hydrochloride respectively (cumulative drug application). Naloxone (10^−6 M) was used as opioid antagonist.
A four-compartment organ bath (Dept. Biotechnology, Grunenthal GmbH) consisting of 20 ml acrylic glass compartments, organ supports and force transducers (F10 force transducers, Type 375, HSE, FRG) was used for the measurement of isometric contractions. The organ bath was filled and emptied by means of a semi-automatic dosing arrangement. All experiments were performed at […]. The nutrient solution was gassed with carbogen (95% O2/5% CO2)) both in the nutrient storage chamber and in the organ bath starting 30 min before the beginning and throughout the experiment.
The nutrient solution had the following composition:
Parameter: contraction force [g]
Guinea pigs were killed in CO2-atmosphere and the ileum was dissected free from adhering tissue, removed and suspended in the organ bath. After an incubation period of at least 30 min, isometric contractions (twitch reactions) were elicited by transmural stimulation pulses (duration 1 ms, amplitude 180 mA at 0.03 Hz; stimulator A310, WPI, FRG). A pre-tension of 1 g was applied to the preparations and constantly readjusted during the equilibration period (at least 30 minutes) while the nutrient was changed twice.
After having registered the pre-value, test compounds were added to the organ bath in cumulative concentration steps as indicated. The exposure time for each concentration was 6 minutes. After the last application of the test compound, the opioid-antagonist naloxone (10^−6 M) was added without previous wash out of the test compound.
1.5 Evaluation Data was calculated as the mean electrically stimulated contraction force during a period of 4 to 6 minutes after compound application and expressed as percentage of the pre-value. The mean contraction force during a period of 2 minutes before compound application was taken as pre-value. All results were expressed as means±s.e.m. of ≧4 single experiments. For determination of IC50 values, regression lines (y=f log x) were constructed and IC50 values with s.e.m. were calculated using a computer-assisted regression analysis program (Grünenthal GmbH). The reversal of the test compound's activity by the antagonist was determined according to the following equation:
with max. effect being: 100%−% reduction of pre-value of twitch reaction at highest dose of test compound.

In experiment [2] the test system is visceral hyperalgesia induced by rectal administration of mustard oil in mice. As to the kind of experiment: visceral hyperalgesia / mustard oil colitis in mice. Type of experiment: in vivo. From the text: The effects of axomadol hydrochloride on visceral hyperalgesia were studied, which was induced by rectal administration of mustard oil in mice (according to Laird J M, Martinez-Caro L, Garcia-Nicas E, Cervero F. (2001) A new model of visceral pain and referred hyperalgesia in the mouse. Pain 92: 335-42). The typical visceral pain behaviour was quantified in three parameters: During the first minutes after mustard oil administration spontaneous visceral pain behaviour occurs. Following this period of spontaneous pain, referred allodynia and hyperalgesia can be quantified by means of von Frey filaments of different strength stimulating the abdomen of the mice.
Male NMRI mice (28-38 g body weight) from a commercial breeder (Iffa Credo, France) were used. The animals were housed under standardized conditions: light/dark cycle (06.00-18.00 h light, 18.00-06.00 h dark), room temperature 20-24° C., relative air humidity 35-70%, 15 air changes per hour, air movement <0.2 m/sec, tap water and standard diet ad libitum, macrolon type 4 cages with maximally 30 animals per cage. There were at least 5 days between delivery and start of the experiment.
Axomadol hydrochloride was dissolved in vehicle solution and injected intra-venously.
Doses: 0.464; 1.0; 2.15; 4.64; 10.0 mg/kg i.v. Administration volume: 10 ml/kg Vehicle solution: 0.9% NaCl solution (Fresenius, Bad Homburg, FRG) Mustard oil was dissolved in vehicle solution and administered intra-rectally Dose: 50 μl of a 3.5 Vol.−% solution per animal Vehicle solution: PEG 200
2.3.1 Induction of Colitis Animals were habituated to the test conditions for 20-30 min and stimulated with von Frey filaments onto the abdominal wall. 10 stimulations with von Frey filaments of 1, 4, 8, 16, and 32 mN were applied in ascending order (i.e. 10×1 mN, 10×4 mN, etc.). Animals with more than 25 positive reactions during this phase were excluded. Vaseline was applied in the perianal area to avoid the stimulation of somatic areas with the irritant chemical. Colitis is induced by rectal administration of 50 μl mustard oil (3.5%). Control animals are treated with vehicle (50 μl PEG200).
Axomadol hydrochloride or vehicle was given intravenously (i.v.) 5 min before mustard oil. Seven animals were tested per group. The following parameters were counted:
2-12 min after mustard oil: • 1. Spontaneous pain score: counting and scoring of visceral pain behaviours (Score 1-2, 1=licking of abdominal wall, 2=stretching, squashing, mounting, backward-movement or contraction of the flank muscles). 20-40 min after mustard oil • 2. […]
Data were analysed by means of two-factor analysis of variance (ANOVA) with repeated measures. Significance of treatment-, time- or treatment x time interaction effects was analyzed by means of Wilks' Lambda statistics. […]

Where [3] appears, read: isolated guinea pig ileum, mean ± s.e.m., read-out: IC50 value, reduction of electrically induced contractions.
[4] abbreviates: twitch contractions of the guinea pig ileum, cumulative application, read-out: IC50.

By IC50 is commonly meant the point on the concentration scale where inhibition reaches its midpoint. With `COc1cccc([C@@]2(O)C[C@H](O)CC[C@@H]2CN(C)C)c1` (racemic) [axomadol hydrochloride, (1RS,3RS,6RS)-6-dimethylaminomethyl-1-(3-methoxyphenyl)-cyclohexane-1,3-diol], in experiment [1] (setting [3]), the IC50 was determined as 39.2 ± 2.8 µM. Also, the IC50 in experiment [1] (setting [4]) came out at 39.2 ± 2.8 µM. Besides, in experiment [1] (increasing concentrations up to 320 μM), the “twitch reactions, reduction to % of pre-value” is listed as 32.1 % of pre-value. In addition, the “threshold of reduction of electrically induced contractions” value in experiment [1] (isolated guinea pig ileum) is given as “around 10 μM”. In addition, in experiment [1], the “% reversal by naloxone” value turned out to be 83.4%, the “inhibitory effect reversed after addition of naloxone” value is on record as 83.4% and the maximal reduction is 32.1 % pre-value. Besides, the “inhibition of all three visceral pain parameters” value in experiment [2] (0.464, 1.0, 2.15, 4.64 and 10.0 mg/kg i.v.) was “dose dependent and significant inhibition”. Moreover, the “ED50 (95% confidence intervals), referred allodynia” value in experiment [2] (i.v. 5 min before mustard oil, 1 mN von Frey filament, 20-40 min after mustard oil) is recorded as 6.13 (5.56-6.60-4.75) mg/kg i.v. Also, the “ED50 (95% confidence intervals), spontaneous visceral pain behaviour” value in experiment [2] (i.v. 5 min before mustard oil, 2-12 min after mustard oil) is recorded as 2.62 (1.79-4.05) mg/kg i.v. Further, the “ED50 (95% confidence intervals), referred hyperalgesia” value in experiment [2] (i.v. 5 min before mustard oil, 16 mN von Frey filament, 20-40 min after mustard oil) is given as 2.72 (1.58-5.46) mg/kg i.v.
On to `CN(C)CC1CCC(O)CC1(O)c1cccc(O)c1` (single isomer, unassigned; (+)) [(+)-O-demethyl axomadol hydrochloride, 6-dimethylaminomethyl-1-(3-hydroxyphenyl)-cyclohexane-1,3-diol], for which the IC50 in experiment [1] (setting [3]) came out at 0.43 ± 0.09 µM. In addition, in experiment [1] (setting [4]), the IC50 turned out to be 0.43 ± 0.09 µM. Moreover, in experiment [1] (increasing concentrations up to 32 μM), the “twitch reactions, reduction to % of pre-value” is on record as 16.6±3 % of pre-value. Moreover, the “threshold of reduction of electrically induced contractions” value in experiment [1] (isolated guinea pig ileum) is “around 0.032 μM”. Also, in experiment [1], the “% reversal by naloxone” value worked out at 69.1%, the “inhibitory effect reversed after addition of naloxone” value was determined as 69.1% and the maximal reduction is listed as 16.6 % pre-value.
